This is an account of results in patent US10913744B2, “LRRK2 inhibitors and methods of making and using the same” (Dana-Farber Cancer Institute, Inc., priority 2015, dated 2021).

Experiment [1] addresses BRSK2 (Homo sapiens (Human), UniProt Q8IWQ3). The experiment can be described thus: Dundee profiling.
Experiment [2] deals with EGFR (L747-S752del, P753S) (Homo sapiens (Human), UniProt P00533, DEL747-752/P753S). The experiment can be described thus: KinomeScan. Format: binding. To be noted: 1 uM.
Experiment [3] addresses TLK1 (Homo sapiens (Human), UniProt Q9UKI8). The experiment can be described thus: Dundee profiling.
Experiment [4] addresses JNK3 (Homo sapiens (Human), UniProt P53779). The experiment can be described thus: Dundee profiling.
The target of experiment [5] is STK33 (Homo sapiens (Human), UniProt Q9BYT3). The experiment can be described thus: Dundee profiling.
For experiment [6], the target named is GCK (Homo sapiens (Human), UniProt Q12851). The experiment can be described thus: Dundee profiling.
Experiment [7] deals with MAPKAP-K3 (Homo sapiens (Human), UniProt Q16644). The experiment can be described thus: Dundee profiling.
The target in experiment [8] is EGFR (G719S) (Homo sapiens (Human), UniProt P00533, G719S). The experiment can be described thus: KinomeScan. Format: binding. To be noted: 1 uM.
Experiment [9] has as its target PRKR (Homo sapiens (Human), UniProt P19525). The experiment can be described thus: KinomeScan. Format: binding. Particulars: 1 uM.
Experiment [10] deals with JAK2 (JH1domain-catalytic) (Homo sapiens (Human), UniProt O60674). The experiment can be described thus: KinomeScan. In kind it is binding. Particulars: 1 uM.
Setting [11] is: read-out: percent remaining enzymatic activity, I1, 1 μM.
[12] abbreviates: read-out: percent remaining enzymatic activity, I10.

Read-outs that look alike come from different tables or passages of the source.

Sequence of MAPKAP-K3 (Q16644 whole entry, species assumed): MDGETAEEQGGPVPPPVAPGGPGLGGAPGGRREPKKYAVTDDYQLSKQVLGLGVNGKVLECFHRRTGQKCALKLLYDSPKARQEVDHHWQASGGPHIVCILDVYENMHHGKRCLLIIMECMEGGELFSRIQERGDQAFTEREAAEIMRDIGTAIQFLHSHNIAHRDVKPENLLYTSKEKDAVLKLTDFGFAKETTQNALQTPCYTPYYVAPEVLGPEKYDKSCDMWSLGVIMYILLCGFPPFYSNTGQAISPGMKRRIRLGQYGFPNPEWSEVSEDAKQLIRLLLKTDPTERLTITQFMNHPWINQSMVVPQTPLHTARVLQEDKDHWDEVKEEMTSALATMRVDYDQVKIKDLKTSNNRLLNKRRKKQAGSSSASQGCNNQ
Sequence of GCK (Q12851 whole entry): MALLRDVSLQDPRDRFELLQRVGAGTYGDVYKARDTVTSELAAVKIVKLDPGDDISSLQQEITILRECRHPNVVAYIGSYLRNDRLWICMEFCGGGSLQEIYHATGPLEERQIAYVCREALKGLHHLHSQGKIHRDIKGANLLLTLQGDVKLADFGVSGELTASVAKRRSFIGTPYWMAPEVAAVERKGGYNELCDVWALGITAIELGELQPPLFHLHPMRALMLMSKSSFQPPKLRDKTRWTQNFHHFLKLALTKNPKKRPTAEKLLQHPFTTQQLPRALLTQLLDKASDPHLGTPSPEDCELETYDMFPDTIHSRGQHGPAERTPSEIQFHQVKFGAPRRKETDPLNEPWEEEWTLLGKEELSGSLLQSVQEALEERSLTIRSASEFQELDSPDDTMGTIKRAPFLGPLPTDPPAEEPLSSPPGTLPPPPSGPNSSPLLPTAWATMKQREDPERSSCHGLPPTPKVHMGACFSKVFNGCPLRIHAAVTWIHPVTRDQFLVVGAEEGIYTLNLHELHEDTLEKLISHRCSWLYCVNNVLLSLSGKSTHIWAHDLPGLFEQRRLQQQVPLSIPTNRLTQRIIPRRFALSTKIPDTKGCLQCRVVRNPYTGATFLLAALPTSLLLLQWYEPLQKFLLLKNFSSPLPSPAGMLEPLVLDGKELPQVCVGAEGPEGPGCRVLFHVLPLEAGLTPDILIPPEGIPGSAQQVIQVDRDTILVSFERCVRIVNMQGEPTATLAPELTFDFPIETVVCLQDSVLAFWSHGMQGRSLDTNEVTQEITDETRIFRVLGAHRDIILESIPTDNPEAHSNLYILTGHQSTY
Sequence of BRSK2 (Q8IWQ3 whole entry, looked up, species assumed): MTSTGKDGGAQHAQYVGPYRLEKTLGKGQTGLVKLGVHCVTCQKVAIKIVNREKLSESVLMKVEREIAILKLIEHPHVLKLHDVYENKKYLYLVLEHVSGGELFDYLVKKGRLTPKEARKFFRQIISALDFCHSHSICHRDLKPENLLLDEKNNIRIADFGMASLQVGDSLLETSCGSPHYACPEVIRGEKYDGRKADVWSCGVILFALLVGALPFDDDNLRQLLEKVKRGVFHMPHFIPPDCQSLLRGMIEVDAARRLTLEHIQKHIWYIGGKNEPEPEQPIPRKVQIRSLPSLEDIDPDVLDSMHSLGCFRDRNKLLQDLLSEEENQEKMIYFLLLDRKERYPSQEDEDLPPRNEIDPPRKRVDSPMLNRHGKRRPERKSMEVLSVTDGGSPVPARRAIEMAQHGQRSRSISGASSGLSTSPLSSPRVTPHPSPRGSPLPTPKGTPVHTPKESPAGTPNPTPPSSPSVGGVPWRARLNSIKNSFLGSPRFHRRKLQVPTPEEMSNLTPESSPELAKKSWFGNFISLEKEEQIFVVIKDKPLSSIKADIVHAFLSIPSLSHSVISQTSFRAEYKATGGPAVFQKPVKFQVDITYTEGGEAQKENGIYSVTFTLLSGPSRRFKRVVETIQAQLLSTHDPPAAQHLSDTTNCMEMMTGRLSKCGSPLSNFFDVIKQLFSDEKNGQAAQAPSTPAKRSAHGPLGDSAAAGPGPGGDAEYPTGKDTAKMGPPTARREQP
Sequence of STK33 (Q9BYT3 whole entry, species assumed): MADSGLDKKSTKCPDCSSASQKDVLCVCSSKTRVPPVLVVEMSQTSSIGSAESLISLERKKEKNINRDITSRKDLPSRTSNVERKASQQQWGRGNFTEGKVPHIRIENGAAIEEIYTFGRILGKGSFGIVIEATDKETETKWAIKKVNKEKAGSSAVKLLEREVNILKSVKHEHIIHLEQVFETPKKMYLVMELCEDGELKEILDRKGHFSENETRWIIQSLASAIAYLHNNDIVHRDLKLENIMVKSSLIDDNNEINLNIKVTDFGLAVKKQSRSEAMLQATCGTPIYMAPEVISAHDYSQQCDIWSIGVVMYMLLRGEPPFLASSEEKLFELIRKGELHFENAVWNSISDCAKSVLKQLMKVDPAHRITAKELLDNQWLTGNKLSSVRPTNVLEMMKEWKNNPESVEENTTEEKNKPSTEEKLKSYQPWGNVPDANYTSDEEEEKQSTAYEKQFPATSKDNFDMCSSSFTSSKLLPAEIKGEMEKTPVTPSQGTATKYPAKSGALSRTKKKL
Sequence of TLK1 (Q9UKI8 whole entry, looked up, species assumed): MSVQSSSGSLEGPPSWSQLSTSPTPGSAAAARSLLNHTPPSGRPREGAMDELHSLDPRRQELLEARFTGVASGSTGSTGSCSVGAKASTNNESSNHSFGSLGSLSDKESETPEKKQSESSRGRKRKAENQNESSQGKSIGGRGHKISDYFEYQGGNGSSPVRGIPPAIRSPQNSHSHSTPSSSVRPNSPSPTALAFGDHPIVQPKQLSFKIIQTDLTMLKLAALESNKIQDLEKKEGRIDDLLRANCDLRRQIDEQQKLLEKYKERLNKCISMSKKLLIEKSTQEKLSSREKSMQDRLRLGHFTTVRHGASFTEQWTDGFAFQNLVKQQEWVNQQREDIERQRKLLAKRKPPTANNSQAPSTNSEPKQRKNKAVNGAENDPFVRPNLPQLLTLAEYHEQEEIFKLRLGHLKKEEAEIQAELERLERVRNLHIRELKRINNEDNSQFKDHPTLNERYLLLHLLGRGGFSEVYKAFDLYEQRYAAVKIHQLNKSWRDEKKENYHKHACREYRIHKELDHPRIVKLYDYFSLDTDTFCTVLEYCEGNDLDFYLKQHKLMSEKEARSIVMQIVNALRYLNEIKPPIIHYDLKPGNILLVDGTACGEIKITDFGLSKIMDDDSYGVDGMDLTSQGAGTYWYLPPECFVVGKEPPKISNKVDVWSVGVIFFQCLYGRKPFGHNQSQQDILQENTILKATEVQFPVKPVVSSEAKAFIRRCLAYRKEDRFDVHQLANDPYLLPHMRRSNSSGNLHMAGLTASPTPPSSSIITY
Sequence of JNK3 (P53779 whole entry, species assumed): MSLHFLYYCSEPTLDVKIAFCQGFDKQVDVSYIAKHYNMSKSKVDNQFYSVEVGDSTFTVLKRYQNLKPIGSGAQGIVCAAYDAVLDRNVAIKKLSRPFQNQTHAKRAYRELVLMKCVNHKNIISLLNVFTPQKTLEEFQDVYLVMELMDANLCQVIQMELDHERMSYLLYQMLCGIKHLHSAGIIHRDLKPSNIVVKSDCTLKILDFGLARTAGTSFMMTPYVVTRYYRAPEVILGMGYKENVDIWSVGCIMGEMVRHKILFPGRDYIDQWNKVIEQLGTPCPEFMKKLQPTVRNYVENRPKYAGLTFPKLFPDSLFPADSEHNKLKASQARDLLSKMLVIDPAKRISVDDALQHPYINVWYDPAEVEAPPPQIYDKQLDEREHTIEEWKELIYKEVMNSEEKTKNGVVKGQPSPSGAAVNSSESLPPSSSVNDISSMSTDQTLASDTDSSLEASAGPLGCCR
Sequence of EGFR (L747-S752del, P753S) (P00533 other isoform, or with tags, fused parts or gaps P753S/del L747-S752): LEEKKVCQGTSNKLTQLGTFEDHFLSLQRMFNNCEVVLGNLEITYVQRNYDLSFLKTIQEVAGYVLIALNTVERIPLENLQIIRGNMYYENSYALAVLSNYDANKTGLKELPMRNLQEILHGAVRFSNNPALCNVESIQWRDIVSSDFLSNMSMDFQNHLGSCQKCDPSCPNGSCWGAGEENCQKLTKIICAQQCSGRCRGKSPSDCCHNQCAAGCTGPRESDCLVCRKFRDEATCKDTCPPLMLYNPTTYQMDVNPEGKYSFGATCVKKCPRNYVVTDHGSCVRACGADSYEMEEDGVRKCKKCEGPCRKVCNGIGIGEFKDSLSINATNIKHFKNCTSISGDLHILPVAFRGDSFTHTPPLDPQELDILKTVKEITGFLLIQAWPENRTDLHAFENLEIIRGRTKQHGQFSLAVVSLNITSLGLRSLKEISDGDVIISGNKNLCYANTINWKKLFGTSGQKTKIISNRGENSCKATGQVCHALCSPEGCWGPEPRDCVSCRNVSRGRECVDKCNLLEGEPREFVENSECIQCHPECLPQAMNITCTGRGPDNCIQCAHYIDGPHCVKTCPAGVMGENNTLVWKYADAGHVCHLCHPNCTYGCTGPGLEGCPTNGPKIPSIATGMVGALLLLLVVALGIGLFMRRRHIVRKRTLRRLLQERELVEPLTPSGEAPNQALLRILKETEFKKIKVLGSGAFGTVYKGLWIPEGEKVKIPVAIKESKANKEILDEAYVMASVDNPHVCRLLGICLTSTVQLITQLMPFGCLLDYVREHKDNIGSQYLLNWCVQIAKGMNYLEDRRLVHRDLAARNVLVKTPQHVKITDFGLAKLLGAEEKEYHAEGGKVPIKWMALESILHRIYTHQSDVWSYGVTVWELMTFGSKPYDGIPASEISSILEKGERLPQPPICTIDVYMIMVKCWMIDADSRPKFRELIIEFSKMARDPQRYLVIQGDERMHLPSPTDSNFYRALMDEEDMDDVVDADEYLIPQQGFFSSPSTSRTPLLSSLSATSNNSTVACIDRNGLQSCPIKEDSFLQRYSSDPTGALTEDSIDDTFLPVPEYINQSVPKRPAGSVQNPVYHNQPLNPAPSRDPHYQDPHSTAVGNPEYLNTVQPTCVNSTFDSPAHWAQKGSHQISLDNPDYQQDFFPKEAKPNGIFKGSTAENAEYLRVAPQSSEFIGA

For `CNc1nc(Nc2ccc(C(=O)N3CCOCC3)cc2OC)nc2[nH]cc(Cl)c12` [Compound 18, (4-((5-chloro-4-(methylamino)-7H-pyrrolo[2,3-d]pyrimidin-2-yl)amino)-3-methoxyphenyl)(morpholino)methanone], the remaining activity at 1 µM was 110% in [1] (setting [11]); 98% in experiment [1] (setting [12]); 106% in experiment [3] (setting [11]); 105% in experiment [3] (setting [12]); 29% in experiment [4] (read-out: percent remaining enzymatic activity); 22% in experiment [5] (setting [11]). Moreover, the remaining activity at 1 µM in experiment [5] (setting [12]) is 15%; in [6] (setting [11]) it was 86%; in experiment [6] (setting [12]), 41%; in [7] (setting [11]) it was 97%; in [7] (setting [12]) it was 84%. The KinomeScan value is listed as 94 in experiment [2], 88 in [8], 96 in [9] and 100 in [10]. The “percent remaining enzymatic activity” value in experiment [4] (I10) was determined as 9%.

The term remaining activity denotes the signal under treatment as a percentage of the control signal.
